Results reported in patent US10695275B2, “Anti-aging composition” (NEOPHARM CO., LTD., priority 2016, dated 2020).

Key:
Format in all cases: cell-based
human fibroblasts = experiment: type-1 collagen synthesis in human fibroblasts (PICP EIA kit); conditions: 24 hours
Experimental: N-(2-hydroxyethyl)octanamide was added to a culture medium of human fibroblasts (DMEM medium, 10% fetal bovine serum, 1% antibiotics) to confirm the effect of accelerating type-1 collagen synthesis in a cell level. The measurement of the synthesized collagen was qualified using a procollagen type I C-peptide enzyme immunoassay kit (PICP EIA kit).
The human fibroblast culture medium was used to aliquot the human-derived fibroblasts (human fibroblasts) into 6 wells at 2×10^5 cell/well. After cell adhesion was confirmed, the culture medium was treated with 2 ml of N-(2-hydroxyethyl)octanamide as an effective component (anti-aging composition) per each well, at a concentration of 20 uM. After the culture medium was cultured in an incubator under a condition of 37° C. and 5% CO2 for 24 hours, type-1 collagen which is related to a wrinkle forming factor was measured in a cell extract. Here, the concentration of the anti-aging composition is within a range being not toxic and not deriving cell proliferation, when treating human-derived fibroblasts. […]
The effect of accelerating type-1 collagen synthesis was confirmed in the same manner as in Example 1, except that the effective component was not used (a negative control). In addition, type-1 collagen synthesis ability relative to the negative control was calculated as a ratio, and represented by a rate of increase. […]

[1] = test system: Artificial skin (EpiDermFT); experiment: collagen fiber staining (Masson's Trichrome) in artificial skin; conditions: 0.1%, 100 μl applied on the surface, 24 hours
Text: When photo-aging of the skin proceeds by ultraviolet rays, a collagen fiber network in an epidermis-dermis junction is damaged. Thus, the amount and form of collagen fiber is used as an indicator of skin photo-aging. The skin tissue of a hairless mouse which was irradiated with ultraviolet rays after N-(2-hydroxyethyl)octanamide was applied, was stained with Masson's Trichrome, observed using an optical microscope (IX71, Olympus, JPN), and then photographed using a digital camera (DP71, Olympus, JPN).
Artificial skin (EpiDermFT™ from MatTek, Ashland, USA) was purchased, and stabilized in an exclusive medium (EFT-400) for 18 hours. On the surface of the artificial skin, 100 μl of N-(2-hydroxyethyl)octanamide as an effective component (anti-aging composition) at a concentration of 0.1% was applied. After 24 hours, the artificial skin tissue was immobilized with 10% formaldehyde, and embedded with paraffin, and a tissue sliced at 5 μm was stained with Masson's Trichrome (M&T), thereby observing a staining degree of collagen fiber. The results were illustrated in the following FIG. 2.

[2] = test system: human-derived fibroblasts; experiment: toxicity / cell proliferation in human-derived fibroblasts; conditions: concentration of 20 uM

Structure (SMILES): CCCCCCCC(=O)NCCO [Example 1, N-(2-hydroxyethyl)octanamide]
- Rate of increase (%) of type-1 collagen synthesis relative to negative control (human fibroblasts; 20 uM, ratio to Comparative Example 1 (non-treated)): 750%
- type-1 collagen concentration (20 uM) (human fibroblasts; human fibroblasts treated at 20 uM, measured in cell extract): 0.015
- staining degree of collagen fiber (aniline blue) in the dermal layer under the epidermis [1]: strongly stained
- toxicity to human-derived fibroblasts [2]: not toxic
